Measurements reported in the NIST ThermoML archive (doi:10.1016/j.jct.2017.02.023).
± gives the expanded uncertainty stated by the source.

Columns and labels:
[1] = refractive index (Na D-line) (dimensionless); conditions: 81.5 kPa, Liquid, Standard Abbe refractometry
[2] = 81.5 kPa, Liquid, Vibrating tube method
[3] = xn = mol fraction of the nth substance listed; conditions: 81.5 kPa, Liquid, Vibrating tube method, x1 = 1
[4] = refractive index (Na D-line) (dimensionless); xn = mol fraction of the nth substance listed; conditions: 81.5 kPa, Liquid, Standard Abbe refractometry, x1 = 1

SMILES	refractive index ([1]; 298.15 K)	refractive index ([1]; 308.15 K)	refractive index ([1]; 318.15 K)	refractive index ([1]; 328.15 K)	mass density ([2]; 298.15 K) [kg/m3]	mass density ([2]; 308.15 K) [kg/m3]	mass density ([2]; 318.15 K) [kg/m3]	mass density ([2]; 328.15 K) [kg/m3]	mass density ([3]; 298.15 K) [kg/m3]	mass density ([3]; 308.15 K) [kg/m3]	mass density ([3]; 318.15 K) [kg/m3]	mass density ([3]; 328.15 K) [kg/m3]	refractive index ([4]; 298.15 K)	refractive index ([4]; 308.15 K)	refractive index ([4]; 318.15 K)	refractive index ([4]; 328.15 K)
CNC1CCCCC1 [N-methylcyclohexylamine]	1.45306 ± 0.0016	1.44812 ± 0.0016	1.4431 ± 0.0016	1.43809 ± 0.0016	865.2 ± 1.6	856.57 ± 1.6	847.67 ± 1.6	838.68 ± 1.6	–	–	–	–	–	–	–	–
CCC(C)O (centres undefined) [butan-2-ol]	1.39544 ± 0.0016	1.39105 ± 0.0016	1.38646 ± 0.0016	1.38175 ± 0.0016	802.71 ± 1.6	794.2 ± 1.6	785.32 ± 1.6	775.52 ± 1.6	–	–	–	–	–	–	–	–
CC(C)O [propan-2-ol] + CNC1CCCCC1	–	–	–	–	–	–	–	–	781.05 ± 1.6	772.41 ± 1.6	763.41 ± 1.6	753.12 ± 1.6	1.37511 ± 0.0016	1.37097 ± 0.0016	1.36665 ± 0.0016	1.36181 ± 0.0016
CCCCCC(C)O (centres undefined) [2-heptanol] + CNC1CCCCC1	–	–	–	–	–	–	–	–	813.36 ± 1.6	805.72 ± 1.6	797.65 ± 1.6	789.38 ± 1.6	1.41924 ± 0.0016	1.41505 ± 0.0016	1.41076 ± 0.0016	1.40647 ± 0.0016
CCCCC(C)O (centres undefined) [2-hexanol]	1.41296 ± 0.0016	1.40853 ± 0.0016	1.40413 ± 0.0016	1.3996 ± 0.0016	810.17 ± 1.6	801.94 ± 1.6	793.57 ± 1.6	784.6 ± 1.6	–	–	–	–	–	–	–	–
CCCCCCC(C)O (centres undefined) [2-octanol]	1.42483 ± 0.0016	1.42073 ± 0.0016	1.41648 ± 0.0016	1.41224 ± 0.0016	817.05 ± 1.6	809.43 ± 1.6	801.32 ± 1.6	793.06 ± 1.6	–	–	–	–	–	–	–	–
CCC(C)O (centres undefined) [butan-2-ol] + CNC1CCCCC1	–	–	–	–	–	–	–	–	802.71 ± 1.6	794.2 ± 1.6	785.32 ± 1.6	775.52 ± 1.6	1.39544 ± 0.0016	1.39105 ± 0.0016	1.38646 ± 0.0016	1.38175 ± 0.0016
CCCCCCC(C)O (centres undefined) [2-octanol] + CNC1CCCCC1	–	–	–	–	–	–	–	–	817.05 ± 1.6	809.43 ± 1.6	801.32 ± 1.6	793.06 ± 1.6	1.42483 ± 0.0016	1.42073 ± 0.0016	1.41648 ± 0.0016	1.41224 ± 0.0016
CCCCCC(C)O (centres undefined) [2-heptanol]	1.41924 ± 0.0016	1.41505 ± 0.0016	1.41076 ± 0.0016	1.40647 ± 0.0016	813.36 ± 1.6	805.72 ± 1.6	797.65 ± 1.6	789.38 ± 1.6	–	–	–	–	–	–	–	–
CC(C)O [propan-2-ol]	1.37511 ± 0.0016	1.37097 ± 0.0016	1.36665 ± 0.0016	1.36181 ± 0.0016	781.05 ± 1.6	772.41 ± 1.6	763.41 ± 1.6	753.12 ± 1.6	–	–	–	–	–	–	–	–
CCCCC(C)O (centres undefined) [2-hexanol] + CNC1CCCCC1	–	–	–	–	–	–	–	–	810.17 ± 1.6	801.94 ± 1.6	793.57 ± 1.6	784.6 ± 1.6	1.41296 ± 0.0016	1.40853 ± 0.0016	1.40413 ± 0.0016	1.3996 ± 0.0016
CCCC(C)O (centres undefined) [pentan-2-ol] + CNC1CCCCC1	–	–	–	–	–	–	–	–	805.37 ± 1.6	796.95 ± 1.6	788.38 ± 1.6	779.17 ± 1.6	1.4045 ± 0.0016	1.40029 ± 0.0016	1.39586 ± 0.0016	1.39126 ± 0.0016
CCCC(C)O (centres undefined) [pentan-2-ol]	1.4045 ± 0.0016	1.40029 ± 0.0016	1.39586 ± 0.0016	1.39126 ± 0.0016	805.37 ± 1.6	796.95 ± 1.6	788.38 ± 1.6	779.17 ± 1.6	–	–	–	–	–	–	–	–
